Source: patent US12539284B2, “Aminoxy acid-based anti-cancer stem cell compounds and methods thereof” (Westlake University, priority 2019, dated 2026)
“Also recorded” adds a separate entry of the source. Where two headings read alike, the source gives them in different places.

Assays:
HEY A8 cancer cells = experiment: Cell viability (CellTiter-Glo) on adherent HEY A8 cancer cells; assay type: cell-based, human; details: read-out: IC50 Cancer Cell HeyA8
Protocol: Cell Cultures Human ovarian carcinoma cell lines HEY A8 and SKOV3 were gifts from Professor Alice Wong's group (The University of Hong Kong). Cells were grown in Dulbecco's Modified Eagle (DMEM) medium supplemented with 10% FBS and 1% penicillin/streptomycin at 37° C. in a humidified atmosphere containing […] CO2. Isolation and culture of spheres were performed in serum-free stem-cell-selective condition as described in literature Ip etl. Oncogene 2014, 5, 9133-9149. Briefly, 1-2 weeks after plating, non-adherent spherical clusters of cells could be observed and were separated from single cells by low speed centrifugation. After 8th to 10th passages, the non-adherent spherical clusters of cells appeared as distinct spheres. Using this selection condition, HEY A8 spheres (HEY A8 SP) or SKOV3 spheres (SKOV3 SP) could be enzymatically dissociated and reformed into spheres within 3 days under stem-cell-selective condition. To allow differentiation, dissociated sphere cells were plated on tissue culture plates in medium (MCDB 105:M199=1:1) supplemented with 10% FBS and 1% PS.
HEY A8 or SKOV3 cancer Cells were plated in triplicate in 0.1 mL full medium in 96-well plates for 24 h. After that, the medium was changed to the fresh prepared medium with various concentrations of compounds. Cells were incubated for another 48 h. Then the cell viability was measured by CellTiter-Glo® Luminescent Cell Viability reagent according to the manufacture's instruction. The luminescence at 550 nm was measured using a microplate reader (SpectraMax 340PC 384, Molecular Devices).

HEK293 = experiment: Toxicity against normal cell line HEK293; assay type: cell-based
Text: (§1) Fourteen compounds including aminoxy acid monomers and dipeptides have been identified to show toxicity against HEY A8 CSCs. The half maximal inhibitory concentration (IC50) values of compounds sff-2-112, sff-2-124, sff-2-132 and sff-2-100 towards adherent cancer HEY A8, SKOV3 cells and CSCs were further determined. […] Especially compound sff-2-132, its selectivity to CSCs is up to 60-fold higher than that to cancer cells. Their toxicity against other normal cell lines NIH3T3, HEK293 and MDCK were also tested and the IC50 values were summarized in Table 1.

MDCK = experiment: Toxicity against normal cell line MDCK; assay type: cell-based
Text: as §1

HEY A8 CSCs [1] = experiment: In vivo tumor seeding ability of pretreated HEY A8 CSCs; details: CSCs pretreated 2 days in vitro, 10^6 cells injected subcutaneously in mice, 25 days
Protocol: In vivo tumor seeding ability of cells after treatment with compound sff-2-112 (“Example 1”) or sff-2-132 (“Example 4”) was evaluated. Taxol was used as a negative control. For this experiment, HEY A8 CSCs were pretreated with sff-2-112 (“Example 1”), sff-2-132 (“Example 4”) or Taxol for 2 days in suspension medium, respectively. Then cells were allowed to proliferate in full medium in the absence of drugs for 10 days. After that, 10^6 cells were injected into mice subcutaneously. Tumor size was measured for 25 days after injection.

HEY A8 cells = experiment: Superoxide production (HKSOX-2m fluorescence); assay type: cell-based, human; details: 5 μM, within 30 min
Protocol: The ability of compound sff-2-112 (“Example 1”) or sff-2-132 (“Example 4”) to induce ROS production was also evaluated on HEY A8 cells (FIG. 9). The ROS production was monitored by superoxide fluorescent probe HKSOX-2m. The increase in fluorescence intensity indicated superoxide production. (n=50-100 cells).
A suspension of HEY A8 cells at the concentration of 5×10^4 cells/mL in DMEM medium were seeded into 30-mm cell culture dishes with glass bottom (MatTek). Cells were incubated at 37° C. in a humidified atmosphere containing 5% CO2 for 24 h. Medium was aspirated and cells was washed with PBS buffer twice. Then 1 mL HBSS buffer containing 4 μM HKSOX-2m was added. Cells were incubated at 37° C. for 30 min before the buffer was aspirated and washed twice with HBSS buffer. Cells were imaged in 0.8 mL HBSS buffer. Fluorescence was monitored by confocal microscope (ZEISS LSM 710; Red channel: λex=543 nm). At t=180 s, compound in 0.2 mL HBSS buffer was added to give the final concentration of 5 μM. Quantitative data were obtained using the ZEN and GraphPad Prism software.

HEY A8 CSCs [2] = experiment: Apoptosis, Annexin V / PI flow cytometry, CSCs; assay type: cell-based, human; details: 5 μM, 2 days; DMSO 4.92%
Protocol: A suspension of HEY A8 cells at the concentration of 5×10^4 cells/mL in DMEM medium were seeded into 60-mm cell culture dishes. Cells were incubated at 37° C. in a humidified atmosphere containing 5% CO2 for 24 h followed by the addition of 4 mL fresh medium or medium containing compound sff-2-112 (“Example 1”) or sff-2-132 (“Example 4”) at different concentration. Medium containing 0.1% DMSO was used as negative control. After 2 days, the medium was aspirated and cells were washed with cold PBS twice, and then stained with PI and Annexin V according to the manufacture's instruction (Dead Cell Apoptosis Kit with Annexin V Alexa Fluor™ 488 & Propidium Iodide, Thermo Fisher). Cells were analyzed by flow cytometry (BD FACS CantoII Analyzer).

HEY A8 CSCs [3] = experiment: Immunoblotting of apoptosis associated proteins PARP, Caspase 3, Caspase 9; assay type: cell-based, human; details: 48 h; CSCs at 10-fold lower concentration than cancer cells
Protocol: For immunostaining experiment, cells were treated with compound sff-2-112 (“Example 1”) or compound sff-2-132 (“Example 4”) at different concentration for 48 h, then washed twice with PBS buffer and lysed with 2×SDS buffer with 0.1% Benzonase. Protein extracts were quantified by Pierce BCA Protein Assay Kit with a Nanodrop 2000 (Thermo Fisher Scientific) according to the manufacture's instruction. Protein lysates (˜50 μg/lane) were resolved by SDS-PAGE and transferred onto PVDF membranes. Membranes were incubated with membrane blocking solution (Thermo Fisher Scientific) for 1 h. The blots were then probed with the relevant primary antibodies in blocking solution at 4° C. overnight with gentle agitation. Membranes were washed with 0.1% Tween 20/TBS for 5 min three times and were incubated with Horseradish Peroxidase (HRP) conjugated secondary antibodies for 1 h at room temperature. Antigens were detected by SuperSignal West Pico PLUS Chemiluminescent Substrate (Thermo Fisher Scientific). Imaging was performed using a ChemiDoc™ XRS+ System (Bio-Rad).

HEY A8 CSCs [4] = experiment: Immunoblotting of autophagy associated proteins P62 and LC3; assay type: cell-based, human; details: 24 h; CSCs at 10-fold lower concentration than cancer cells
Protocol: HEY A8 cancer cells and CSCs were treated with compound sff-2-112 (“Example 1”) or sff-2-132 (“Example 4”) for 24 h. Then cells were washed twice with PBS buffer and lysed for immuno-staining. The immunostaining methods were as same as it described in Example 10.

Row | Compound | IC50 (HEY A8 cancer cells; 48 h incubation) [µM] | IC50 (HEK293) [µM] | IC50 (MDCK) [µM] | tumor-seeding ability / tumor size of pretreated cells (HEY A8 CSCs [1]) | increasement of superoxide production (HEY A8 cells) | Annexin V positive cells, CSCs (HEY A8 CSCs [2]) [%] | activation of PARP1, Caspase 3 and Caspase 9 (HEY A8 CSCs [3]) | LC3-II and p62 levels (autophagy suppression) (HEY A8 CSCs [4]) | IC50 (HEY A8 cancer cells; Homo sapiens, HEY A8, 48 h incubation) [µM] | IC50 (HEK293; Homo sapiens, HEK293) [µM] | IC50 (MDCK; Canis lupus familiaris, MDCK) [µM]
1 | O=C(NO[C@H](COCc1ccccc1)C(=O)Nc1ccccc1)c1cc(C(F)(F)F)cc(C(F)(F)F)c1 [sff-2-112] | 23.4 ± 2.1 | 51 ± 1 | 25.1 ± 1.1 | significant decrease in tumor-seeding ability; also recorded: significantly decreased tumor size | about 2 fold | 21.0 | activation of protein PARP1, Caspase 3 and Caspase 9 was also observed in CSCs | Increased levels of both LC3-II and p62 in CSCs |  |  | 
2 | CC(C)(C)OC(=O)[C@@H](COCc1ccccc1)ONC(=O)c1cc(C(F)(F)F)cc(C(F)(F)F)c1 [sff-2-132] |  |  |  | significant decrease in tumor-seeding ability; also recorded: significantly decreased tumor size | about 2 fold | 30.4 | activation of protein PARP1, Caspase 3 and Caspase 9 was also observed in CSCs | Increased levels of both LC3-II and p62 in CSCs | 52.9 ± 1.9 | 70.3 ± 1.7 | 49.1 ± 0.4
